Patent publication US8129427B2, “2-phenylethylamino derivatives as calcium and/or sodium channel modulators” (Newron Pharmaceuticals S.p.A., priority 2005, dated 2012)

Columns and labels:
[1] = tested on: chronic constriction injury model in the rat; test: Bennett model of neuropathic pain in rats (cold allodynia); format: in vivo; settings: AUD of cold allodynia as percent inhibition of vehicle control
Method: Effects on neuropathic pain are tested in the chronic constriction injury model in the rat (Bennett, G. J. and Xie, Y. K., A peripheral mononeuropathy in rat that produces disorders of pain sensation like those seen in man, Pain, 33 (1988) 87-107). Under pentobarbital anesthesia (Nembutal, 50 mg/kg, i.p.), unilateral multiple ligations are performed on male Sprague-Dawley rats (140-160 g) at the right common sciatic nerve. The sciatic nerve is exposed by blunt dissection at the level of mid-thigh and four loose ligatures (5-0 chromic catgut) are placed around the nerve taking care not to interrupt the epineural circulation. After operation, animals are allowed to recover for one week. Animals develop a cold allodynia which is stable for at least five weeks. […] The animals, randomly assigned to groups of 10 for each test dose and vehicle, are observed for periods of 2 minutes before and after application of test compound and the number of brisk withdrawal reactions is counted. […] Percent maximal possible effect (% MPE) and standard error of the mean (SEM) of each time point is determined with the pre-test value used as […]. The area under the data (AUD) is calculated for the observation period and expressed as percent inhibition of vehicle control as shown in Table 8. Significance is calculated by paired t-test on the percent AUD values.

[2] = tested on: sodium currents of cortical neurons; test: Inhibition of sodium currents in cortical neurons (whole cell patch clamp); format: cell-based; settings: embryonic Wistar rat cortical neurons, preconditioning −50 mV (half maximal steady-state condition); read-out: IC50 (Vhalf)
Method: Cell Preparation and culturing: cortical neurons were prepared from embryonic Wistar rats (E17-E19). Brains of E17/E19 rats were removed and placed in ice-cold Hank's solution (Hank's solution (Life tech.14170-088)+glucose 30%+Pen-Strep 100× (Life Tech. 15140-122) 100 U-100 μg/ml and Hepes-NaOH 5 mM).
Cortex were isolated, cut in small parts and washed twice with Hank's solution. The solution was removed except 1-2 ml and the tissue was mechanically dissociated. After the mechanical dissociation, 5 ml of complete DMEM (Dulbecco's modified Eagle medium) (Gibco 41966-029)+FBS (Hyclone) 10%+Glutamine (Life Tech. 25030-024) 2 mM+Pen-Strep 100 U-100 μg/ml were added, and cell suspension was centrifuged for 5 min at 1000 rpm. Supernatant was removed and 5 ml of complete Neurobasal medium was added (Neurobasal medium (Life tech. 21103-049)+B27 (Life tech. 17504-044) 2%+Glutamine 2 mM+Pen-Strep 100 U-100 μg/ml)
Cells were counted and diluted in Neurobasal medium to a concentration of 400000 cells per poly-D-lysine 5 μg/ml treated Petri dish. […]
Whole Cell Patch Clamp Recordings: Experiments on cortical neurons were carried out using standard whole cell patch clamp methods (Hamill et al., 1981). Membrane currents were recorded and filtered at 5 kHz with an Axon Axopatch 200B amplifier and data digitized with an Axon Digidata 1322A (Axon Instruments, CA, USA). […]

[3] = biological target: T1, recombinant Nav 1.3 channels (Homo sapiens, UniProt Q9NY46); test: Patch clamp studies of sodium currents inhibition in HEK293 cells; format: cell-based; settings: tonic block, preconditioning −50 mV (half maximal steady-state inactivated condition); read-out: IC50 (Vhalf)
T1 construct: expressed in transfected cells; host or cells: HEK293 cells
Method: Cells and methods: Functional inhibition of the sodium currents was studied using whole cell patch clamp methods (Hamill O. P., Marty A., Neher E., Sakmann B., Sigworth F. J., Pflugers Arch. (1981) 391 (2): 85-100) on HEK293 cells expressing recombinant Nav 1.3 channels. Membrane currents were recorded as described in the example above.
For sodium current recording control bath solution contained (mM): NaCl (80), Choline chloride (38), CaCl2 (1.3), MgCl2 (2), KCl (2), CdCl2 (0.4), NiCl2 (0.3), TEA.Cl (20), Hepes (10), Glucose (10). Internal pipette solution consisted of (mM): EGTA (10), NaCl (10), CaCl2 (1.3), MgCl2 (2), Hepes (10), CsF (130), MgATP (1).
Compounds were dissolved as 20 mM stock solutions in DMSO and then diluted to the final concentration in the external solutions.
Voltage protocols and data analyses: A two-step protocol was used to determine the voltage dependence of the block:
sodium current was activated by a 30 ms step pulse to 10 mV (test pulse) from a 2000 ms preconditioning potential of −100 mV (resting condition) or −50 mV (half maximal steady-state inactivated condition), respectively.
The amplitude of sodium current peaks evoked by the respective test pulses at a frequency of 0.06 Hz were measured before and after exposure to the test substance. Tonic block of currents was calculated as the difference between the Nacurrent peak measured at the end of a stabilization period in the control external bath solution and the current peak measured at the end of test substance perfusion period (when steady state is reached) divided by control peaks. Drug concentration-inhibition curves were obtained by plotting tonic blocks versus drug concentrations. Dose-response curves were fitted to the tonic block data, according to the logistic equation: y=A2+(A1−A2)/[1+(x/IC50)^p]. A1 and A2 are fixed values of 0 and 1 corresponding to 0 and 100% current inhibition, x is the drug concentration, IC50 is the drug concentration resulting in 50% current inhibition and p is the corresponding slope factor.

T1 sequence (Q9NY46 whole entry): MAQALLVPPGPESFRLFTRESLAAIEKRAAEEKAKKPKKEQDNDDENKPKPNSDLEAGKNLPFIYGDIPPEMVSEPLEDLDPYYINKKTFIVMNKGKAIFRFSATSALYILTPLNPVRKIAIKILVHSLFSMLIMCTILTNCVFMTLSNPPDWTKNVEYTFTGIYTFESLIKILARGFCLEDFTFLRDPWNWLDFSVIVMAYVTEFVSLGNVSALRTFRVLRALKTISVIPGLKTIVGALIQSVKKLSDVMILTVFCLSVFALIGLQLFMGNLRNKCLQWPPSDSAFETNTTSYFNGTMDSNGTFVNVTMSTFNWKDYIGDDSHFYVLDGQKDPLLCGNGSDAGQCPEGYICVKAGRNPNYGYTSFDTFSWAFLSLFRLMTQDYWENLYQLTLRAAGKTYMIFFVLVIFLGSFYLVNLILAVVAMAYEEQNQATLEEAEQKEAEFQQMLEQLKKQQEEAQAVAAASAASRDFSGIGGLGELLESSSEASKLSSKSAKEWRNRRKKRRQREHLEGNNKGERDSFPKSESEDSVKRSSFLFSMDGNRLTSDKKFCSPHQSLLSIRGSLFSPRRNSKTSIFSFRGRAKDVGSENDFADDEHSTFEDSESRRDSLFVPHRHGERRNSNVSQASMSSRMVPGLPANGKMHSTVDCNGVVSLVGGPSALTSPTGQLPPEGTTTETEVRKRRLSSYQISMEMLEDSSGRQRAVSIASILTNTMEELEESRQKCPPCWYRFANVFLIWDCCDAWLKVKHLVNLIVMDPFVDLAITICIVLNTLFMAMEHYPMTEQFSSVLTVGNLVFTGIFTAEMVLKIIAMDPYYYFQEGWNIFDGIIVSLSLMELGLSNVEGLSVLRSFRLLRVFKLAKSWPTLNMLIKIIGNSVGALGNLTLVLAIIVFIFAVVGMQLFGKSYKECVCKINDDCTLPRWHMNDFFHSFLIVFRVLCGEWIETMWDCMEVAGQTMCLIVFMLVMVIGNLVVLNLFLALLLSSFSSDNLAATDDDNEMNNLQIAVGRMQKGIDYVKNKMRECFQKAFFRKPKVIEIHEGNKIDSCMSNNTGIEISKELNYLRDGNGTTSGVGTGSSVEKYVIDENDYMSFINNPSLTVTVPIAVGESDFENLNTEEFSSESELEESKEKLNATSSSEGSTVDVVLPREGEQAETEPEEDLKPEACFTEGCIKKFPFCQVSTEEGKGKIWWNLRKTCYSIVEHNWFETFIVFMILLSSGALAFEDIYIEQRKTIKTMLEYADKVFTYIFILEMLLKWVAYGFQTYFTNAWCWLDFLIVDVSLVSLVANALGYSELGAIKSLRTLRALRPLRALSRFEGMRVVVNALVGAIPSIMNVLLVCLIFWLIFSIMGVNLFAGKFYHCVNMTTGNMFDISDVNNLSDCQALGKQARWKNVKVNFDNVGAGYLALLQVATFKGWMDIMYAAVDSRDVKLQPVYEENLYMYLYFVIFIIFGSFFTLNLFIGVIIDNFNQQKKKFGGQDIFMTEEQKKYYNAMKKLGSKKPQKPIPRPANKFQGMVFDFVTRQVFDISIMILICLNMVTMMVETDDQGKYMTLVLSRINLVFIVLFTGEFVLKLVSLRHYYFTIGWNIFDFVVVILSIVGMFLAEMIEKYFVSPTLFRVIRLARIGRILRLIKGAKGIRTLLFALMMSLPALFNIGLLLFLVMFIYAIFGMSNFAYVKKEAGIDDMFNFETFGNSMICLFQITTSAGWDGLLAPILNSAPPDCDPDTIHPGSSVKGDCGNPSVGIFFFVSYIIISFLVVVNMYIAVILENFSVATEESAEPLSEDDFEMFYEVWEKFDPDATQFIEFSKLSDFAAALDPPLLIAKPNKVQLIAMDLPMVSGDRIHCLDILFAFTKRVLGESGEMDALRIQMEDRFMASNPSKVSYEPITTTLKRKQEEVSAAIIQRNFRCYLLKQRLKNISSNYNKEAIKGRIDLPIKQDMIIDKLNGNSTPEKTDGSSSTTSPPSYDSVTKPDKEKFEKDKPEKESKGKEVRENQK

Structure (SMILES)	Change vs. Control ([1]; 0.1 mg/kg p.o.) [%]	IC50 [2] [µM]	IC50 [3] [µM]	Change vs. Control ([1]; 1.0 mg/kg p.o.) [%]
CCCCOc1cccc(CCN(CC(=O)N(C)C)CC2CCOC2)c1.Cl (racemic) [Example 96, 2-[[2-(3-Butoxy-phenyl)-ethyl]-(tetrahydrofuran-3-ylmethyl)amino]-N,N-dimethyl-acetamide hydrochloride]	35.7	0.5	3.1	–
C[C@H](NCc1ccc(OCc2ccccc2F)cc1)C(N)=O [ralfinamide, (S)-(+)-2-[4-(2-fluoro-benzyloxy)-benzylamino]-propanamide, reference compound]	–	9	15	23.7
